Laboratory results as given in patent US10000473B2, “Indazole derivatives useful as glucagon receptor antagonists” (Janssen Pharmaceutica NV, priority 2016, dated 2018).
Several values for one entry are separate records, joined by “and”; a condition that tells them apart may be missing. Equal entries are not always repeated.

Columns and labels:
[1] = test system: GCG-mediated increases in blood glucose; assay: Glucagon challenge in vivo assay measuring blood glucose (normal dog glucagon challenge test); settings: fasted male beagle dogs; for inhibition of GCG-mediated increases in blood glucose vs vehicle: glucagon 5 μg/kg intramuscular 90 min after dosing
Protocol: Glucagon Challenge In Vivo Assay Measuring Blood Glucose
The efficacy of a glucagon receptor antagonist was evaluated using a normal dog glucagon challenge test. Male beagle dogs were overnight fasted prior to the study. Test compound (at 3 mg/kg and 10 mg/kg for Compound #196 and at 10 mg/kg for Compounds #180, #248 and #253) or vehicle (0.5% hydroxypropyl methylcellulose) was dosed via oral gavage. Ninety minutes later, the dogs (1.5 years old, ˜9 Kg) were submitted to a glucagon challenge test by a single intramuscular injection of glucagon (Glucagon, rDNA origin, Eli Lilly, Indianapolis, Ind.) at dose of 5 μg/kg. Blood glucose levels were determined at times −10 min, 0 min (on challenge), 10 min, 20 min, 30 min, and 60 min after glucagon injection.

human GCGR = target: T1, human GCGR (Homo sapiens, UniProt P47871); assay: Cellular functional assay, cAMP readout (glucagon-stimulated cAMP, LANCE TR-FRET); type: cell-based; settings: HEK293 cells stably expressing full-length human GCGR; glucagon 100 pM; IC50 converted to Ki; read-out: Inhibition of cAMP Ki
T1 construct: expressed in transfected cells; host or cells: HEK293 (hGluc-1HEK), pcDNA3.1, G418 selection
T1 sequence (P47871 26-477): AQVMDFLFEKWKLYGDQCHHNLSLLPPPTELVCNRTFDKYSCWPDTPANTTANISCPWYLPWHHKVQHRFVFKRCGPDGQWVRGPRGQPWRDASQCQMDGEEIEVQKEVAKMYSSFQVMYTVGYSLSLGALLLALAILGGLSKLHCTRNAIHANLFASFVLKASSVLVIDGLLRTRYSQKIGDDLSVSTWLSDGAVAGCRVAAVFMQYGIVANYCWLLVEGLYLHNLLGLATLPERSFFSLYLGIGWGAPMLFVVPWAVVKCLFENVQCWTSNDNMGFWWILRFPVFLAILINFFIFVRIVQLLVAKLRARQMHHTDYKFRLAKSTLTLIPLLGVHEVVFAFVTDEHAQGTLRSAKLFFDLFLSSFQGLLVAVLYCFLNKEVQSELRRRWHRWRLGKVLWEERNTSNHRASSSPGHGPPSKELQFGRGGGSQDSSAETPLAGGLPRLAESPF

[2] = 10 mg/kg oral gavage, glucagon 5 μg/kg intramuscular

Compound | Ki (human GCGR) | other results
Cc1c(-c2ccc(C(F)(F)F)cc2Cl)ccc2nn([C@@H](CC(C)C)c3ccc(C(=O)NCCC(=O)O)cc3)cc12 [Compound #180, 3-[[4-[(1S)-1-[5-[2-Chloro-4-(trifluoromethyl)phenyl]-4-methyl-indazol-2-yl]-3-methyl-butyl]benzoyl]amino]propanoic acid] | 25 nM (2×) and 20 nM | blood glucose levels during glucagon challenge compared with vehicle treated group [1, 2]: markedly reduced blood glucose levels; duration of blood glucose reducing effect after glucagon injection [1, 2]: more than 60 min; inhibition of GCG-mediated increases in blood glucose vs vehicle ([1]; 10 mg/kg oral gavage): 28.9%
Cc1cc(C(F)(F)F)ccc1-c1cc2cnn([C@@H](CC(C)C)c3ccc(C(=O)NCCC(=O)O)cc3)c2cc1C [Compound #253, 3-[[4-[(1S)-3-Methyl-1-[6-methyl-5-[2-methyl-4-(trifluoromethyl)phenyl]indazol-1-yl]butyl]benzoyl]amino]propanoic acid] | 14 nM | inhibition of GCG-mediated increases in blood glucose vs vehicle ([1]; 10 mg/kg oral gavage): 17.1%
Cc1cc2c(cnn2[C@@H](CC(C)C)c2ccc(C(=O)NCCC(=O)O)cc2)cc1-c1ccc(C(F)(F)F)cc1Cl [Compound #196, 3-[[4-[(1S)-1-[5-[2-Chloro-4-(trifluoromethyl)phenyl]-6-methyl-indazol-1-yl]-3-methyl-butyl]benzoyl]amino]propanoic acid] | 32 nM | inhibition of GCG-mediated increases in blood glucose vs vehicle ([1]; 3 mg/kg oral gavage): 5.9%; inhibition of GCG-mediated increases in blood glucose vs vehicle ([1]; 10 mg/kg oral gavage): 23.9%
Cc1cc(C(F)(F)F)ccc1-c1cc2cn([C@@H](CC(C)C)c3ccc(C(=O)NCCC(=O)O)cc3)nc2cc1C [Compound #248, 3-[[4-[(1 S)-3-Methyl-1-[6-methyl-5-[2-methyl-4-(trifluoromethyl)phenyl]indazol-2-yl]butyl]benzoyl]amino]propanoic acid] | 25 nM | inhibition of GCG-mediated increases in blood glucose vs vehicle ([1]; 10 mg/kg oral gavage): 15%
COc1c(-c2ccc(C(F)(F)F)cc2Cl)ccc2nn(C(CC(C)C)c3ccc(C(=O)NCCC(=O)O)nc3)cc12 (centres unmarked) [Compound #178, 3-(5-(1-(5-(2-Chloro-4-(trifluoromethyl)phenyl)-4-methoxy-2H-indazol-2-yl)-3-methylbutyl)picolinamido)propanoic acid] | 22 nM | 
CC(C)CC(c1ccc(C(=O)NCCC(=O)O)nc1)n1cc2cc(-c3ccc(C(F)(F)F)cc3Cl)c(Cl)cc2n1 (centres unmarked) [Compound #33, 3-[[5-[1-[6-Chloro-5-[2-chloro-4-(trifluoromethyl)phenyl]indazol-2-yl]-3-methyl-butyl]pyridine-2-carbonyl]amino]propanoic acid] | 70 nM | 
O=C(O)CCNC(=O)c1ccc(C(CC2CCCC2)n2cc3cc(-c4ccc(C(F)(F)F)cc4)ccc3n2)cc1 (centres unmarked) [compound 254] | 90 nM | 
CCCCCC(c1ccc(C(=O)NCCC(=O)O)cc1)n1ncc2cc(-c3ccc(C(C)(C)C)cc3)ccc21 (centres unmarked) [compound 88] | 255 nM | 
CC(C)CC(c1ccc(C(=O)NCCC(=O)O)cc1)n1ncc2cc(-c3ccsc3)ccc21 (centres unmarked) [compound 221] | 2900 nM | 
CCOc1c(-c2ccc(C(F)(F)F)cc2Cl)ccc2c1cnn2C(CC(C)C)c1ccc(C(=O)NCCC(=O)O)nc1 (centres unmarked) [Compound #179, 3-(5-(1-(5-(2-Chloro-4-(trifluoromethyl)phenyl)-4-ethoxy-1H-indazol-1-yl)-3-methylbutyl)picolinamido)propanoic acid] | 24 nM | 
CC(C)(F)CC(c1ccc(C(=O)NCCC(=O)O)cc1)n1cc2cc(-c3ccc(C(F)(F)F)cc3)ccc2n1 (centres unmarked) [Compound #256, 3-(4-(3-Fluoro-3-methyl-1-(5-(4-(trifluoromethyl)phenyl)-2H-indazol-2-yl)butyl)benzamido)propanoic acid] | 200 nM | 
CC(C)CC(c1ccc(C(=O)NCCC(=O)O)cc1)n1cc2cc(-c3cc4cc(F)ccc4s3)ccc2n1 (centres unmarked) [compound 129] | 88 nM | 
Cc1cc(C(F)(F)F)ccc1-c1ccc2c(cnn2C(CCC(F)(F)F)c2ccc(C(=O)NCCC(=O)O)cc2)c1 (centres unmarked) [Compound #44, 3-[[4-[4,4,4-Trifluoro-1-[5-[2-methyl-4-(trifluoromethyl)phenyl]indazol-1-yl]butyl]benzoyl]amino]propanoic acid] | 160 nM | 
Cc1cc(C(F)(F)F)ccc1-c1cc2cnn(C(CC(C)C)c3ccc(C(=O)NCCC(=O)O)cc3)c2cc1C (centres unmarked) [Compound #93, 3-[[4-[3-Methyl-1-[6-methyl-5-[2-methyl-4-(trifluoromethyl)phenyl]indazol-1-yl]butyl]benzoyl]amino]propanoic acid] | 36 nM | 
COc1c(-c2ccc(C(F)(F)F)cc2C)ccc2c1cnn2C(CC(C)C)c1ccc(C(=O)NCCC(=O)O)cc1 (centres unmarked) [Compound #29, 3-(4-(1-(4-Methoxy-5-(2-methyl-4-(trifluoromethyl)phenyl)-1H-indazol-1-yl)-3-methylbutyl)benzamido)propanoic acid] | 60 nM | 
CC(C)(C)c1ccc(-c2ccc3c(cnn3C(CC3CCCCC3)c3ccc(C(=O)NCCC(=O)O)cc3)c2)cc1 (centres unmarked) [Compound #24, 3-(4-(1-(5-(4-(tert-Butyl)phenyl)-1H-indazol-1-yl)-2-cyclohexylethyl)benzamido)propanoic acid] | 114 nM | 
